Patent US20230348415A1, “BISPECIFIC ANTAGONISTS OF RETINOL-BINDING PROTEIN 4 THAT STABILIZE TRANSTHYRETIN TETRAMERS, THEIR PREPARATION, AND USE IN THE TREATMENT OF COMMON AGE-RELATED COMORBIDITIES” (The Trustees of Columbia University in the City of New York, priority 2020, published 2023)
Entries after “also recorded” stand apart in the source; their conditions may differ.

Columns and labels:
TTR = TTR (Homo sapiens (Human), UniProt P02766); test: Acid-induced TTR aggregation assay; format: biochemical; conditions: 50 μM compound, pH 4.0, 72 h, 37° C.
Experimental: FIG. 6. […] After incubation in the presence of 50 μM Tafamidis, 50 μM Benzbromarone and 50 μM (±)-44, samples were crosslinked and subjected to SDS-PAGE followed by western blotting with TTR antibodies. The representative blot of at least three independent experiments is presented. (B, C), Bar graphs represent pixel volumes of TTR high molecular weight aggregates (B) and monomers (C). The vertical axes represent the ratio of pixel volume means±S.D. of the scanned bands on the immunoblots in arbitrary units. Statistical significance was determined by one-way ANOVA with Holm-Sidak post hoc test; *, p≤0.05; **, p≤0.01; ***, p≤0.001; ****, p≤0.0001 compare to TTR aggregation (pH 4.0)+DMSO group, #, p≤0.05; ##, p≤0.01; ###, p≤0.001; ####, p≤0.0001 compare to TTR without aggregation (pH 7.5) group.
The ability of test compounds to prevent TTR aggregation was evaluated under the acidic conditions that favor TTR aggregation and fibril formation. […] At the end of the incubation, 3.5 μl 500 mM sodium phosphate (Sigma #S5136) buffer pH=8.0 was added to each sample for neutralization and 0.6 μl 5% CHAPS (Sigma #C5070) as a detergent to prevent reassociation of protein. The cross-linking was performed by adding 1.5 μl 5% glutaraldehyde solution (Sigma #G6257). After 4 min, the reaction was stopped by the addition of 2.5 μl freshly made 5% NaBH4. Samples were subjected to TTR western blotting with prealbumin antibodies (1:500; Dako #A0002). Band intensity for TTR monomer and TTR aggregates was quantified from scanned images of the blots.

[1] = In vivo PK in CD-1 mice (IV and PO); set-up: species or system mouse; conditions: male CD-1 mice
Experimental: • IV dosing vehicles: 3% DMA/45% PEG300/12% ethanol/40% sterile water • PO dosing vehicle: 2% Tween 80 in 0.9% saline • Dose formulation: The dose formulation was prepared by the step-wise addition (in the order listed) of the individual components of the vehicle to a weighed quantity of test compound in a volume that yielded the desired final concentration. Each formulation was prepared by mixing a weighed quantity of test compound with the appropriate volume of vehicle. • Dosing Solution Analysis: The dosing solutions were analyzed by LC-MS/MS. The dosing solutions were diluted into mouse blood and analyzed in triplicate. All concentrations are expressed as mg/mL of the free base. The nominal dosing level was used in all calculations for Group 1.
• Species and strain: mouse; male CD-1 • Mean weight: 0.034 kg for the IV arm; 0.027 kg for PO arm • Number: 6 animals total (three animals per dosing group (Group 1 (IV) and Group 2 (PO)), per study) • COMPLIANCE: This non-clinical study followed established practices and standard operating procedures of Absorption Systems as well as the study protocol. This study was exploratory in nature and was not conducted in accordance with the principles set forth in the United States Food and Drug Administration (FDA) Good Laboratory Practice (GLP) Regulations, 21 Code of Federal regulations (CFR) Part 58. The report is archived in a validated scientific data management system. Electronic signatures comply with the regulation 21 CFR Part 11.
Blood was collected from mice at pre-dose and at 5, 15 and 30 min, and 1, 2, 4, 8, 24 and 48 h post-dose. Hemolyzed blood samples were extracted by protein precipitation using acetonitrile. Following protein extraction with acetonitrile, compound levels were measured by LC-MS/MS. Pharmacokinetic parameters were calculated from the time course of the blood concentrations. Pharmacokinetic parameters were determined with Phoenix WinNonlin (v8.0) software using a non-compartmental model. The maximum blood concentrations (CO) after IV dosing were estimated by extrapolation of the first two time points back to t=0. The maximum blood concentration (Cmax) and the time to reach maximum blood concentration (tmax) after PO dosing were observed from the data. The area under the time concentration curve (AUC) was calculated using the linear trapezoidal rule with calculation to the last quantifiable data point, and with extrapolation to infinity if applicable. Blood half-life (t ½) was calculated from 0.693/slope of the terminal elimination phase. Mean residence time, MRT, was calculated by dividing the area under the moment curve (AUMC) by the AUC. Clearance (CL) was calculated from dose/AUC. Steady-state volume of distribution (Vss) was calculated from CL*MRT. Bioavailability was determined by dividing the individual dose normalized PO AUC∞ values by the average dose-normalized IV AUC∞ value. Any samples below the limit of quantitation (1.00 ng/mL) were treated as zero for pharmacokinetic data analysis.

RBP4 = RBP4 (Homo sapiens (Human), UniProt P02753); test: RBP4 SPA binding assay (displacement of 3H-retinol); conditions: read-out: RBP4 SPA IC50

With `Cc1cc(C(=O)O)nc(N2CCC(COc3ccccc3C(F)(F)F)C2)n1` (racemic) [Compound (±)-44, (±)-6-Methyl-2-(3-((2-(trifluoromethyl)phenoxy)methyl)pyrrolidin-1-yl)pyrimidine-4-carboxylic Acid] the “formation of high molecular weight TTR species” value (TTR) was “reduces the formation of high molecular weight TTR forms; also recorded: significantly reduced the formation of high molecular weight TTR species”, the “TTR monomer band intensities” value (TTR; vs DMSO) was “Significant increase” and the “fold reduction in formation of high molecular weight aggregates” value (TTR; vs DMSO) was 4.7 fold. It also gave a CL ([1]; IV 2 mg/kg) of 0.832 mL/min/kg, an AUCINF ([1]; PO 5 mg/kg) of 52439 ng·h/mL and a t1/2 ([1]; PO 5 mg/kg) of 9.9 h. The AUC(0-inf) ([1]; mouse, whole blood, IV 2 mg/kg) was 40300 ng·h/mL, the AUC(0-t) ([1]; mouse, whole blood, IV 2 mg/kg) was 39500 ng·h/mL and the clearance ([1]; mouse, whole blood, IV 2 mg/kg) was 0.832 mL/min/kg. The half-life ([1]; mouse, whole blood, IV 2 mg/kg) was 8.6 h, the C0 ([1]; mouse, whole blood, IV 2 mg/kg, blood) was 9130 ng/mL and the Vd ([1]; mouse, whole blood, IV 2 mg/kg, read-out: Vss) was 0.518 L/kg. It also gave a bioavailability ([1]; mouse, whole blood, PO 5 mg/kg vs IV 2 mg/kg) of 52%, an AUC(0-inf) ([1]; mouse, whole blood, PO 5 mg/kg) of 52400 ng·h/mL and an AUC(0-t) ([1]; mouse, whole blood, PO 5 mg/kg) of 50400 ng·h/mL. The Tmax ([1]; mouse, whole blood, PO 5 mg/kg) was 0.83 h, the half-life ([1]; mouse, whole blood, PO 5 mg/kg) was 9.9 h and the Cmax ([1]; mouse, whole blood, PO 5 mg/kg, blood) was 3030 ng/mL. It also gave an IC50 (RBP4) of 0.08 µM.
